Laboratory results as given in US12215109B2, “Crystal of pyrazolo[3,4-d]pyrimidine” (TAIHO PHARMACEUTICAL CO., LTD., priority 2018, dated 2025).

What was measured:
Type in all cases: physicochemical
[1] = Thermal stability test (X-ray powder diffraction under heating); conditions: XRPD at 25° C., 50° C., elevated to 200° C., then lowered to 25° C.
Procedure: A thermal stability test was conducted on Crystal I and Crystal III obtained in Example and Comparative Example described above. Crystal II was not reproduced, and it was not possible to conduct a thermal stability test.
X-ray powder diffraction measurement was performed at 25° C., and the temperature was elevated to 50° C. over 30 minutes, followed by performing X-ray powder diffraction measurement. The temperature was further elevated to 200° C. at 10° C./10 min, followed by performing X-ray powder diffraction measurement, then the temperature was lowered to 25° C. over 30 minutes, followed by performing X-ray powder diffraction measurement.

[2] = Solid stability test (storage stability; XRPD, HPLC related substances, appearance); conditions: for Related substances: HPLC
Procedure: The storage stability of Crystal I obtained in Example above was examined under the following conditions. • Storage conditions: 40° C./[…] (open system and closed system), 60° C. (closed system), light shielding • Measurement point: 1 month • Storage amount: about 50 mg • Storage container: Brown glass bottle
X-ray powder diffraction measurement of the sample after storage was performed by the above-described method. For a change in mass of related substances (amount of detected substances other than Compound (I)), about 1 mg of the sample was weighed, and dissolved in about 5 mL of a water/acetonitrile mixed liquid (1:1), and 5 μL of the liquid was accurately measured and taken, and analyzed by HPLC in accordance with the following method. • Column: InertSustain C18 HP, 4.6×150 mm, 3 μm • Column temperature: 40° C. • Column flow rate: 0.8 mL/min • Mobile phase: A: 10 mM phosphate buffer (pH 6.8)/acetonitrile (17:3) and B: acetonitrile/methanol (17:3) • Detection UV: 220 nm • Gradient: […]

[3] = Dynamic moisture absorption/desorption test; conditions: 25° C., humidity 5% RH to 95% RH and back to 5% RH
Procedure: In the test, VTI-SA+(TA Instruments) was used. About 10 mg of crystal I was weighed, and put into a pan. The temperature was elevated at a rate of 1 degree per minute to 60° C. while observing the weight variation per 5 minutes of 0.0100% or less. When the weight varied, this temperature was maintained for a maximum of 5 hours, followed by starting the next step. Thereafter, the temperature was cooled to 25° C., and the humidity was increased from 5% RH to 95% RH, and then decreased to 5% RH. Here, the humidity was increased in increments of 5% RH while observing the weight variation per 5 minutes of 0.00100% or less. When the weight varied, this humidity was maintained for a maximum of 2 hours, followed by starting the next step.

[4] = 40° C./75% RH (closed system), 1 month
[5] = 40° C./75% RH (open system), 1 month
[6] = 60° C. (closed system), 1 month
[7] = Light shielding (1,200,000 lx · hr)

SMILES	change in crystal form under heating [1]	Appearance [2, 4]	Related substances [2, 4] [%]	Appearance [2, 5]	Related substances [2, 5] [%]	Appearance [2, 6]	Related substances [2, 6] [%]	Appearance [2, 7]	Related substances [2, 7] [%]	change in X-ray powder diffraction pattern after storage ([2]; storage 1 month, 40° C./75° RH (open and closed system), 60° C. (closed system), light shielding)	hygroscopicity (moisture absorption/desorption isothermal line) [3]
C=CC(=O)N1CCC[C@@H](n2nc(C(=O)Nc3ccc(CC(=O)N(C)C)c(C)c3C)c3c(N)ncnc32)C1 [Crystal I, (R)-1-(1-acryloylpiperidin-3-yl)-4-amino-N-(4-(2-(dimethylamino)-2-oxoethyl)-2,3-dimethylphenyl)-1H-pyrazolo[3,4-d]pyrimidine-3-carboxamide]	no change in crystal form	No change	<0.1	No change	<0.1	No change	<0.1	No change	<0.1	no change in X-ray powder diffraction pattern	non-hygroscopic
C=CC(=O)N1CCC[C@@H](n2nc(C(=O)Nc3ccc(CC(=O)N(C)C)c(C)c3C)c3c(N)ncnc32)C1 [Crystal III, (R)-1-(1-acryloylpiperidin-3-yl)-4-amino-N-(4-(2-(dimethylamino)-2-oxoethyl)-2,3-dimethylphenyl)-1H-pyrazolo[3,4-d]pyrimidine-3-carboxamide]	changed by heating	–	–	–	–	–	–	–	–	–	–
